The structures appear in SMILES notation.

One assay relates to EAAT2. The assay is described as follows: EAAT2 Cellular Assay: EAAT2 protein levels in PA-EAAT2 cells by Western blot. The format is cell-based, human. The settings on record: 0.25 μM (concentration that reaches maximum activity), 24 hr, relative to DMSO controls. The procedure: All of the compounds were initially evaluated in PA-EAAT2 cells, a primary astrocyte stably expressing human EAAT2 mRNAs (Kong et al., J Clin Invest. 2014:1255-67). Cells were treated with compound at 0.25 μM, 0.5 μM, 1 μM, 2.5 μM, 5 μM, 10 μM, and 25 μM for 24 hr and then harvested for measuring EAAT2 protein levels by Western blot analysis.
`O=S(=O)(Nc1ccc(-c2ccccn2)nn1)c1ccccc1F`: the “Fold increase for EAAT2 at indicated concentration (maximum activity)” value (“Fold increase for EAAT2” for short) was 2.6 ± 0.2 (0.25 μM) fold.
Still for that read-out and setting: under `O=C(Nc1ccc(-c2ccccn2)nn1)c1cc(F)ccn1` stands 1.7 ± 0.1 (0.25 μM) fold.
On to `O=C(Nc1ccc(-c2ccccn2)nn1)c1ccc(F)cn1`, for which the “Fold increase for EAAT2” value is listed as 1.9 ± 0.2 (0.25 μM) fold.
Still for that read-out and setting: under `O=C(Nc1ccc(-c2ccccn2)nn1)c1cccc(F)n1` stands 1.6 ± 0.1 (0.25 μM) fold; under `O=C(Nc1ccc(-c2ccccn2)nn1)c1ccc(F)c(Cl)c1`, 2.2 ± 0.4 (0.25 μM) fold; under `O=C(Nc1ccc(-c2ccccn2)nn1)c1ccc(F)cc1` [drawing 110], 2.5 ± 0.3 (0.25 μM) fold.
The same measure, in the same setting: then `CNC(=O)COc1ccc(-c2ccccn2)nn1` [drawing 129], with 2.3 ± 0.1 (0.25 μM) fold.

Still in this assay, the particulars now being: 0.5 μM (concentration that reaches maximum activity), 24 hr, relative to DMSO controls.
Consider `O=S(=O)(Nc1ccc(-c2ccccn2)nn1)c1ccc(F)cc1`, for which the “Fold increase for EAAT2” value was 2.4 ± 0.2 (0.5 μM) fold.
Same read-out and setting: then `CN1CCC(C(=O)Nc2ccc(-c3ccccn3)nn2)CC1`, with 1.7 ± 0.1 (0.5 μM) fold.
The same measure, in the same setting: then `O=C(Nc1ccc(-c2ccccn2)nn1)c1ncccn1`, with 1.5 ± 0.1 (0.5 μM) fold; and `O=C(Nc1ccc(-c2ccccn2)nn1)c1cccnn1`, with 1.9 ± 0.1 (0.5 μM) fold.

Staying with this assay, now noted: 1 μM (concentration that reaches maximum activity), 24 hr, relative to DMSO controls.
Regarding `O=C(Nc1ccc(-c2ccccn2)nn1)c1cccc(Cl)c1`, the “Fold increase for EAAT2” value was 1.5 ± 0.1 (1 μM) fold.
Still for that read-out and setting: under `O=C(Nc1ccc(-c2ccccn2)nn1)c1ccc(Cl)cc1` stands 1.5 ± 0.2 (1 μM) fold.

The assay is the same for the next values; noted with them: 2.5 μM (concentration that reaches maximum activity), 24 hr, relative to DMSO controls.
Turning to `c1ccc(-c2ccc(OCc3ncco3)nn2)nc1`, the “Fold increase for EAAT2” value is 1.9 ± 0.1 (2.5 μM) fold.
For `CN(C)CCOc1ccc(-c2ccccn2)nn1`, the “Fold increase for EAAT2” value was 2.9 ± 0.2 (2.5 μM) fold.

Staying with this assay, now noted: 5 μM (concentration that reaches maximum activity), 24 hr, relative to DMSO controls.
Turning to `c1ccc(COc2ccc(-c3ccccn3)nn2)nc1`, the “Fold increase for EAAT2” value is 3.0 ± 0.1 (5 μM) fold.
On the same count and under the same terms, then `O=C(Nc1ccc(-c2ccccn2)nn1)c1ccccc1Cl`, with 2.0 ± 0.2 (5 μM) fold.
Turning to `CN(C)C(=O)COc1ccc(-c2ccccn2)nn1`, the “Fold increase for EAAT2” value is on record as 2.9 ± 0.2 (5 μM) fold.
The same measure, in the same setting: then `O=C(Nc1ccc(-c2ccccn2)nn1)c1cncs1`, with 1.9 ± 0.1 (5 μM) fold; and `Cn1cncc1COc1ccc(-c2ccccn2)nn1`, with 1.7 ± 0.1 (5 μM) fold.
Still for that read-out and setting: then `Cn1ccnc1COc1ccc(-c2ccccn2)nn1`, with 1.9 ± 0.1 (5 μM) fold; and `CC(Oc1ccc(-c2ccccn2)nn1)c1ccccn1` (centres unmarked), with 1.7 ± 0.1 (5 μM) fold; and `CN(C)CCNc1ccc(-c2ccccn2)nn1`, with 2.4 ± 0.2 (5 μM) fold.
Still for that read-out and setting: then `c1ccc(-c2ccc(NCCCn3ccnc3)nn2)nc1`, with 3.3 ± 0.2 (5 μM) fold.

Staying with this assay, now noted: 10 μM (concentration that reaches maximum activity), 24 hr, relative to DMSO controls.
Regarding `O=C(Nc1ccc(-c2cccnc2)nn1)c1ccc(F)cc1`, the “Fold increase for EAAT2” value is recorded as 2.1 ± 0.2 (10 μM) fold.
Still for that read-out and setting: under `Cn1cncc1C(=O)Nc1ccc(-c2ccccn2)nn1` stands 1.8± 0.2 (10 μM) fold.
Still for that read-out and setting: then `COc1ccc(C(=O)Nc2ccc(-c3ccccn3)nn2)cc1`, with 2.1 ± 0.2 (10 μM) fold; and `NC(=O)COc1ccc(-c2ccccn2)nn1`, with 1.8 ± 0.2 (10 μM) fold; and `Cc1ccccc1NC(=O)COc1ccc(-c2ccccn2)nn1`, with 2.4 ± 0.2 (10 μM) fold.
On the same count and under the same terms, then `CN(C(=O)COc1ccc(-c2ccccn2)nn1)c1ccccc1`, with 2.2 ± 0.3 (10 μM) fold.
With `O=C(COc1ccc(-c2ccccn2)nn1)N1CCCCC1`, the “Fold increase for EAAT2” value was 2.6 ± 0.1 (10 μM) fold.
Same read-out and setting: then `c1ccc(-c2ccc(OCc3nccs3)nn2)nc1`, with 2.2 ± 0.3 (10 μM) fold; and `c1ccc(CNc2ccc(-c3ccccn3)nn2)cc1`, with 3.1 ± 0.3 (10 μM) fold.
With `CNC(=O)COc1ccc(-c2ccccn2)nn1` [drawing 130], the “Fold increase for EAAT2” value is on record as 1.8 ± 0.1 (10 μM) fold.

The subject of a further assay is EAAT2. The assay is described as follows: EAAT2 expression in mouse brain after single oral dose (semi-quantitative Western blot). The format is in vivo. The settings on record: mice, single dose by oral gavage, brains harvested at 24 h post-treatment. The procedure: Mice received a single dose of the compound (n=3/dose) by oral gavage. Brains were harvested at 24 h post-treatment. EAAT2 protein levels were analyzed by semi-quantitative Western blot analysis.
As for `O=C(Nc1ccc(-c2ccccn2)nn1)c1ccc(F)cc1` [Example 4, 4-Fluoro-N-(6-(pyridin-2-yl)pyridazin-3-yl)benzamide], the “EAAT2 protein levels in mouse brain” value is given as “dose-dependently increased EAAT2 levels”.

Source of the values: patent US10787433B2, “Pyridazine derivatives as EAAT2 activators” (THE BRIGHAM AND WOMEN'S HOSPITAL, INC., priority 2016, dated 2020).
